Reference: the NIST ThermoML archive (doi:10.1021/acs.jced.8b00692)

Experiment: xn = mol fraction of the nth substance listed
Settings: 102 kPa, Liquid; for viscosity: Concentric cylinders viscometry; for speed of sound: Frequency=3 MHz, Single path-length method; for mass density: Vibrating tube method

CCCCCCCCCC1CCCCC1 [nonylcyclohexane] + CCCCCCCCCCCCCCCC
Settings	mass density [kg/m3]	speed of sound [m/s]	viscosity [mPa·s]
293.15 K, x1 = 0.2005	781.15	1363.9	3.58
293.15 K, x1 = 0.4001	789.28	1371.3	3.72
293.15 K, x1 = 0.5002	793.52	1375.2	3.79
293.15 K, x1 = 0.5998	797.86	1379.1	3.89
293.15 K, x1 = 0.8002	806.91	1387.3	4.07
293.15 K, x1 = 1	816.41	1397.2	4.34
303.15 K, x1 = 0.2005	774.24	1326.7	2.84
303.15 K, x1 = 0.4001	782.39	1334.2	2.95
303.15 K, x1 = 0.5002	786.64	1338.1	3
303.15 K, x1 = 0.5998	790.99	1342	3.06
303.15 K, x1 = 0.8002	800.06	1350.2	3.2
303.15 K, x1 = 1	809.57	1359.6	3.39
313.15 K, x1 = 0.2005	767.33	1290.2	2.3
313.15 K, x1 = 0.4001	775.51	1297.7	2.38
313.15 K, x1 = 0.5002	779.77	1301.6	2.43
313.15 K, x1 = 0.5998	784.12	1305.6	2.47
313.15 K, x1 = 0.8002	793.21	1313.8	2.58
313.15 K, x1 = 1	802.74	1322.9	2.72
323.15 K, x1 = 0.2005	760.43	1254.4	1.9
323.15 K, x1 = 0.4001	768.63	1261.9	1.96
323.15 K, x1 = 0.5002	772.9	1265.8	2
323.15 K, x1 = 0.5998	777.25	1269.8	2.03
323.15 K, x1 = 0.8002	786.35	1278.1	2.12
323.15 K, x1 = 1	795.8	1287.1	2.22
333.15 K, x1 = 0.2005	753.54	1219.5	1.6
333.15 K, x1 = 0.4001	761.74	1226.9	1.65
333.15 K, x1 = 0.5002	766.02	1230.9	1.68
333.15 K, x1 = 0.5998	770.38	1234.9	1.7
333.15 K, x1 = 0.8002	779.49	1243.4	1.77
333.15 K, x1 = 1	789.05	1252.2	1.85
343.15 K, x1 = 0.2005	746.6	–	1.38
343.15 K, x1 = 0.4001	754.9	–	1.4
343.15 K, x1 = 0.5002	759.2	–	1.44
343.15 K, x1 = 0.5998	763.6	–	1.45
343.15 K, x1 = 0.8002	772.7	–	1.5
343.15 K, x1 = 1	782.2	–	1.57
353.15 K, x1 = 0.2005	739.7	–	1.18
353.15 K, x1 = 0.4001	748	–	1.21
353.15 K, x1 = 0.5002	752.3	–	1.23
353.15 K, x1 = 0.5998	756.8	–	1.25
353.15 K, x1 = 0.8002	765.8	–	1.3
353.15 K, x1 = 1	775.4	–	1.35
363.15 K, x1 = 0.2005	732.7	–	1.05
363.15 K, x1 = 0.4001	741.1	–	1.06
363.15 K, x1 = 0.5002	745.4	–	1.09
363.15 K, x1 = 0.5998	749.8	–	1.09
363.15 K, x1 = 0.8002	758.9	–	1.13
363.15 K, x1 = 1	768.5	–	1.2
373.15 K, x1 = 0.2005	725.7	–	0.908
373.15 K, x1 = 0.4001	734.2	–	0.931
373.15 K, x1 = 0.5002	738.5	–	0.944
373.15 K, x1 = 0.5998	742.9	–	0.96
373.15 K, x1 = 0.8002	752	–	1
373.15 K, x1 = 1	761.6	–	1.03
